Drawing on patent US10030047B2 (Hoffmann-La Roche Inc., priority 2015, dated 2018), this text covers MIC for 18 molecules.

Converted amounts (≈) assume the structure as drawn.

The test system of this assay is A. baumannii strain ATCC19606. Kind of assay: Minimum inhibitory concentration (MIC) determination, microbroth dilution (CLSI). The assay is classed as cell-based. The settings on record: Acinetobacter baumannii; A. baumannii ATCC19606; CAMHB; read after 20 hours; >=80% growth inhibition; read-out: ATCC19606 MIC. The gist of the method:
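CLSI broth microdilution in cation-adjusted Mueller Hinton broth with twofold compound dilutions and ~5×10^5 CFU/ml inoculum, incubated at 35±2 °C. MIC read after 20 h as lowest concentration inhibiting ≥80% of growth, by eye and OD 600 nm.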
In general terms: Broth dilution looks for growth in wells or tubes with falling amounts of substance.
The term MIC denotes the smallest concentration in the dilution series that meets the test's criterion for growth inhibition. On to `Cc1cc(-c2cc(Cl)c3c(c2)CNC(=O)[C@H](Cc2c[nH]c4ccccc24)N(C)C(=O)[C@H](CCCCN)NC(=O)[C@H](CCC(N)=O)NCc2cccnc2S3)ccn1` [Example 145, 3-[(11S,14S,17S)-14-(4-Amino-butyl)-25-chloro-17-(1H-indol-3-ylmethyl)-16-methyl-23-(2-methyl-pyridin-4-yl)-12,15,18-trioxo-2-thia-4,10,13,16,19-pentaaza-tricyclo[19.4.0.0*3,8*]pentacosa-1(25),3(8),4,6,21,23-hexaen-1l-yl]-propionamide], for which the MIC worked out at 4 µg/mL (≈ 4.94 µM). Regarding `CN1C(=O)[C@H](CCCCN)NC(=O)[C@H](CCCN)NCc2cccnc2Sc2c(Cl)cc(-c3cnccn3)cc2CNC(=O)[C@@H]1Cc1c[nH]c2ccccc12` [Example 146, (11S,14S,17S)-14-(4-Amino-butyl)-11-(3-amino-propyl)-25-chloro-17-(1H-indol-3-ylmethyl)-16-methyl-23-pyrazin-2-yl-2-thia-4,10,13,16,19-pentaaza-tricyclo[19.4.0.0*3,8*]pentacosa-1(25),3(8),4,6,21,23-hexaene-12,15,18-trione], the MIC was 1 µg/mL (≈ 1.28 µM). As for `CN1C(=O)[C@H](CCCCN)NC(=O)[C@H](CCCN)NCc2cccnc2Sc2c(Cl)ccc(N3CCOCC3)c2CNC(=O)[C@@H]1Cc1c[nH]c2ccccc12` [Example 147, (11S,14S,17S)-14-(4-Amino-butyl)-11-(3-amino-propyl)-25-chloro-17-(1H-indol-3-ylmethyl)-16-methyl-22-morpholin-4-yl-2-thia-4,10,13,16,19-pentaaza-tricyclo[19.4.0.0*3,8*]pentacosa-1(25),3(8),4,6,21,23-hexaene-12,15,18-trione], the figure is 0.12 µg/mL (≈ 0.152 µM); as for `CN1C(=O)[C@H](CCCCN)NC(=O)[C@H](CCCN)NCc2cccnc2Sc2c(Cl)cc(-c3ccnnc3)cc2CNC(=O)[C@@H]1Cc1c[nH]c2ccccc12` [Example 148, (11S,14S,17S)-14-(4-Amino-butyl)-11-(3-amino-propyl)-25-chloro-17-(1H-indol-3-ylmethyl)-16-methyl-23-pyridazin-4-yl-2-thia-4,10,13,16,19-pentaaza-tricyclo[19.4.0.0*3,8*]pentacosa-1(25),3(8),4,6,21,23-hexaene-12,15,18-trione], 8 µg/mL (≈ 10.2 µM); as for `CN1C(=O)[C@H](CCCCN)NC(=O)[C@H](CCCN)NCc2cccnc2Sc2c(Cl)cc(-c3ccccc3)cc2CNC(=O)[C@@H]1Cc1c[nH]c2ccccc12` [Example 149], 1 µg/mL (≈ 1.28 µM). Consider `CN1C(=O)[C@H](CCCCN)NC(=O)[C@H](CCCN)NCc2cccnc2Sc2c(Cl)cc(-c3ccccn3)cc2CNC(=O)[C@@H]1Cc1c[nH]c2ccccc12` [Example 150, (11S,14S,17S)-14-(4-Amino-butyl)-11-(3-amino-propyl)-25-chloro-17-(1H-indol-3-ylmethyl)-16-methyl-23-pyridin-2-yl-2-thia-4,10,13,16,19-pentaaza-tricyclo[19.4.0.0*3,8*]pentacosa-1(25),3(8),4,6,21,23-hexaene-12,15-18-trione], for which the MIC turned out to be 1 µg/mL (≈ 1.28 µM).

As to `CN1C(=O)[C@H](CCCCN)NC(=O)[C@H](CCCN)NCc2ccccc2Sc2c(Cl)cc(-c3cn(C)cn3)cc2CNC(=O)[C@@H]1Cc1c[nH]c2ccccc12` [Example 154, (12S,15S,18S)-15-(4-Amino-butyl)-18-(3-amino-propyl)-4-chloro-12-(1H-indol-3-ylmethyl)-13-methyl-6-(1-methyl-1H-imidazol-4-yl)-2-thia-10,13,16,19-tetraaza-tricyclo[19.4.0.0*3,8*]pentacosa-1(25),3,5,7,21,23-hexaene-11,14,17-trione], the MIC worked out at 2 µg/mL (≈ 2.55 µM).

In the case of `CN1C(=O)[C@H](CCCCN)NC(=O)[C@H](CCCN)NCc2cnccc2Sc2c(Cl)cc(C(F)(F)F)cc2CNC(=O)[C@@H]1Cc1c[nH]c2ccccc12` [Example 156, (7S,10S,13S)— 13-((1H-Indol-3-yl)methyl)-10-(4-aminobutyl)-7-(3-aminopropyl)-20-chloro-12-methyl-18-(trifluoromethyl)-6,7,9,10,12,13,15,16-octahydrobenzo[b]pyrido[3,4-p][1,5,8,11,14]thiatetraazacycloheptadecine-8,11,14(5H)-trione], the MIC was determined as 1 µg/mL (≈ 1.29 µM). As for `CN1C(=O)[C@H](CCCCN)NC(=O)[C@H](CCCN)NCc2cccnc2Sc2c(Cl)cncc2CNC(=O)[C@@H]1Cc1c[nH]c2ccccc12` [Example 157, (7S,10S,13S)— 13-((1H-Indol-3-yl)methyl)-10-(4-aminobutyl)-7-(3-aminopropyl)-20-chloro-12-methyl-6,7,9,10,12,13,15,16-octahydrodipyrido[2,3-b:3′,4′-p][1,5,8,11,14]thiatetraazacycloheptadecine-8,11,14(5H)-trione], the figure is 16 µg/mL (≈ 22.7 µM); as for `CN1C(=O)[C@H](CCCN)NC(=O)[C@H](CCC(N)=O)NCc2cccnc2Sc2c(Cl)cc(Cl)cc2CNC(=O)[C@@H]1Cc1c[nH]c2ccccc12` [Example 160, 3-[(11S,14S,17S)-14-(3-Amino-propyl)-23,25-dichloro-17-(1H-indol-3-ylmethyl)-16-methyl-12,15,18-trioxo-2-thia-4,10,13,16,19-pentaaza-tricyclo[19.4.0.0*3,8*]pentacosa-1(25),3(8),4,6,21,23-hexaen-11-yl]-propionamide], 4 µg/mL (≈ 5.41 µM); as for `CN1C(=O)[C@H](CCCCN)NC(=O)[C@H](CCCN)NCc2cccnc2Sc2c(Cl)cc(-c3ccnc(N4CCOCC4)c3)cc2CNC(=O)[C@@H]1Cc1c[nH]c2ccccc12` [Example 162, (11S,14S,17S)-14-(4-Amino-butyl)-11-(3-amino-propyl)-25-chloro-17-(1H-indol-3-ylmethyl)-16-methyl-23-(2-morpholin-4-yl-pyridin-4-yl)-2-thia-4,10,13,16,19-pentaaza-tricyclo[19.4.0.0*3,8*]pentacosa-1(25),3(8),4,6,21,23-hexaene-12,15,18-trione], 0.5 µg/mL (≈ 0.576 µM). With `CN1C(=O)[C@H](CCCCN)NC(=O)[C@H](CCC(N)=O)NCc2cccnc2Sc2c(Cl)cc(-c3ccccn3)cc2CNC(=O)[C@@H]1Cc1c[nH]c2ccccc12` [Example 163, 3-[(11S,14S,17S)-14-(4-Amino-butyl)-25-chloro-17-(1H-indol-3-ylmethyl)-16-methyl-12,15,18-trioxo-23-pyridin-2-yl-2-thia-4,10,13,16,19-pentaaza-tricyclo[19.4.0.0*3,8*]pentacosa-1(25),3(8),4,6,21,23-hexaen-1-yl]-propionamide], the MIC worked out at 4 µg/mL (≈ 5.02 µM). As for `CN1C(=O)[C@H](CCCCN)NC(=O)[C@H](CCCN)NCc2cccnc2Sc2c(Cl)cc(-c3ccnc(Cl)c3)cc2CNC(=O)[C@@H]1Cc1c[nH]c2ccccc12` [Example 164, (11S,14S,17S)-14-(4-Amino-butyl)-11-(3-amino-propyl)-25-chloro-23-(2-chloro-pyridin-4-yl)-17-(1H-indol-3-ylmethyl)-16-methyl-2-thia-4,10,13,16,19-pentaaza-tricyclo[19.4.0.0*3,8*]pentacosa-1(21),3,5,7,22,24-hexaene-12,15,18-trione], the figure is 0.25 µg/mL (≈ 0.306 µM). As for `CN1C(=O)[C@H](CCCCN)NC(=O)[C@H](CCCN)NCc2cccnc2Sc2c(Cl)cc(-c3ccc(O)nc3)cc2CNC(=O)[C@@H]1Cc1c[nH]c2ccccc12` [Example 165, (11S,14S,17S)-14-(4-Amino-butyl)-11-(3-amino-propyl)-25-chloro-23-(6-hydroxy-pyridin-3-yl)-17-(1H-indol-3-ylmethyl)-16-methyl-2-thia-4,10,13,16,19-pentaaza-tricyclo[19.4.0.0*3,8*]pentacosa-1(25),3(8),4,6,21,23-hexaene-12,15,18-trione], the figure is 4 µg/mL (≈ 5.01 µM); as for `CN(C)c1ccc(-c2cc(Cl)c3c(c2)CNC(=O)[C@H](Cc2c[nH]c4ccccc24)N(C)C(=O)[C@H](CCCCN)NC(=O)[C@H](CCCN)NCc2cccnc2S3)cn1` [Example 166, (11S,14S,17S)-14-(4-Amino-butyl)-11-(3-amino-propyl)-25-chloro-23-(6-dimethylamino-pyridin-3-yl)-17-(1H-indol-3-ylmethyl)-16-methyl-2-thia-4,10,13,16,19-pentaaza-tricyclo[19.4.0.0*3,8*]pentacosa-1(25),3(8),4,6,21,23-hexaene-12,15,18-trione], 0.5 µg/mL (≈ 0.606 µM). For `Cc1cc(-c2cc3c(cn2)Sc2ncccc2CN[C@@H](CCCN)C(=O)N[C@@H](CCCCN)C(=O)N(C)[C@@H](Cc2c[nH]c4ccccc24)C(=O)NC3)ccn1` [Example 167, (7S,10S,13S)-13-((1H-Indol-3-yl)methyl)-10-(4-aminobutyl)-7-(3-aminopropyl)-12-methyl-18-(2-methylpyridin-4-yl)-6,7,9,12,13,15,16-octahydrodipyrido[2,3-b:4′,3′-p][1,5,8,11,14]thiatetraazacycloheptadecine-8,11,14(5H)-trione], the MIC turned out to be 32 µg/mL (≈ 41.9 µM).

`Cc1noc(C)c1-c1cc(Cl)c2c(c1)CNC(=O)[C@H](Cc1c[nH]c3ccccc13)N(C)C(=O)[C@H](CCCCN)NC(=O)[C@H](CCC(N)=O)NCc1cccnc1S2` [Example 169, 3-[(11S,14S,17S)-14-(4-Amino-butyl)-25-chloro-23-(3,5-dimethyl-isoxazol-4-yl)-17-(1H-indol-3-ylmethyl)-16-methyl-12,15,18-trioxo-2-thia-4,10,13,16,19-pentaaza-tricyclo[19.4.0.0*3,8*]pentacosa-1(25),3(8),4,6,21,23-hexaen-11-yl]-propionamide]: the MIC worked out at 4 µg/mL (≈ 4.91 µM).

For the molecule `Cc1cc(-c2cc(Cl)c3c(c2)CNC(=O)[C@H](Cc2c(C)[nH]c4ccccc24)N(C)C(=O)[C@H](CCCCN)NC(=O)[C@H](CCCN)NCc2cccnc2S3)ccn1` [Example 170, (11S,14S,17S)-14-(4-Amino-butyl)-11-(3-amino-propyl)-25-chloro-16-methyl-17-(2-methyl-1H-indol-3-ylmethyl)-23-(2-methyl-pyridin-4-yl)-2-thia-4,10,13,16,19-pentaaza-tricyclo[19.4.0.0*3,8*]pentacosa-1(25),3(8),4,6,21,23-hexaene-12,15,18-trione], the MIC worked out at 0.5 µg/mL (≈ 0.617 µM).
